# Reference: patent US9381208B2, “Structure and use of 5′ phosphate oligonucleotides” (Rheinische Friedrich-Wilhelms-Universität, priority 2006, dated 2016)
# Key:
# human primary monocytes = experiment: IFN-α production in human primary monocytes transfected with RNA (ELISA); type: cell-based; details: 200 ng RNA transfected, 24 hours, ELISA
# PDC = experiment: IFN-α production in human PDC (ELISA); type: cell-based; details: 24 hours
# Description: Human PBMC were prepared from whole blood donated by young healthy donors by Ficoll-Hypaque density gradient centrifugation (Biochrom, Berlin, Germany). PDC were isolated by MACS using the blood dendritic cell Ag (BCDA)-4 dendritic cell isolation kit from Miltenyi Biotec (Bergisch-Gladbach, Germany). Briefly, PDC were labelled with anti-BDCA-4 Ab coupled to colloidal paramagnetic microbeads and passed through a magnetic separation column twice (LS column, then MS column; Miltenyi Biotec). The purity of isolated PDC (lineage-negative, MHC-II-positive and CD123-positive cells) was above 95%. Before isolation of monocytes, PDC were depleted by MACS (LD column; Miltenyi Biotec) and then monocytes were isolated using the monocyte isolation kit II (Miltenyi Biotec). […] PDC cultures were additionally supplemented with 10 ng/ml IL-3 (R&D Systems). […] Vero (African green monkey kidney) and HEK 293T (human embryonic kidney) cells were maintained in Dulbecco's modified Eagle's medium supplemented with antibiotics and 5% or 10% foetal calf serum, respectively. BSR cells were propagated in Glasgow minimal essential medium supplemented with 10% newborn calf serum, phosphate broth, amino acids and antibiotics.
# Human IFN-α was assessed in cell culture supernatants using the IFN-α module set (Bender MedSystems, Graz, Austria). The murine IP-10 ELISA was from Biosource (Solingen, Germany), the murine IFN-[…] ELISA was from PBL Biomedical Laboratories (Piscataway, USA). All ELISA procedures were performed, according to manufacturers' recommendations.
# PBMC = experiment: IFN-α in PBMC transfected with chemically synthesized 5′ triphosphate RNA (ELISA); type: cell-based, human; details: oligonucleotide alone, 0.2 μg, 24 hours
# Description: PBMC were transfected with chemically synthesized single-strand oligonucleotides alone or together with their complementary antisense strand (AS) by using Lipofectamine and incubated in the presence or absence of chloroquine (Chl). CpG2331 was used as a positive and chloroquine-sensitive control for IFN-α induction in PBMC.
# The isRNA9.2 (Hornung V et al. (2005) Nat Med 11(3):263-70) generated by in vitro transcription was used a positive control (IVT2-3PRNA). CpG2331 is a TLR9 ligand. PBMC (400,000 cells per well) were transfected with oligonucleotides by using Lipofectamin (0.5 μl, 0.2 μg oligonucleotide). Hybridization of complementary strands was performed by heating 4 μg total RNA in 20 μl of buffer (final 50 mM Tris/HCl pH7.5 100 mM NaCl) up to 70° C. followed by cooling down to 40° C. Chloroquine was used to block TLR-mediated nucleic acid recognition (2.5 μg/ml).
substance,measurement,setting,value
5′-pppAGCUUAACCUGUCCUUCAA-3′ [9.2s (IVT)],IFN-α production in monocytes,human primary monocytes,strongly induced IFN-α production
same,IFN-α production in PDC,PDC,produced IFN-α
same,IFN-α induction in PBMC,PBMC,induced IFN-α
